Data from patent US5616615A, “Enaminone esters” (priority 1995, dated 1997).
Where two headings read alike, the source gives them in different places.

Key:
[1] = system: Maximal electroshock seizures; assay: MES maximal electroshock seizure test, mice ip; format: in vivo; design: TPE (time of peak effect), activity: unit not given here; conditions: ip; for responders at 100 mg/kg: read-out: MES, animals protected/tested (converted); for responders at 300 mg/kg: read-out: MES, animals protected/tested
Procedure: Three tests were performed:
1. MES--Electroshock Seizure Test
(§1) Maximal electroshock seizures are elicited with a 60-cycle alternating current of 50 mA intensity (5-7 times that necessary to elicit minimal electroshock seizures) delivered via corneal electrodes for 0.2 seconds. A drop of 0.9% saline is instilled in the eye prior to application of the electrodes in order to […].

[2] = system: Subcutaneous Pentylenetetrazol seizure; assay: sc Met subcutaneous pentylenetetrazol (Metrazol) seizure test, mice; format: in vivo; conditions: Mus musculus, sc, read-out: scMet, animals protected/tested (converted)
[3] = in vivo; conditions: mouse, in vivo, ip
[4] = system: Maximal electroshock seizures; assay: Phase VI oral MES test, rats; format: in vivo; conditions: oral; for responders at 6 mg/kg / responders at 10 mg/kg: Rattus norvegicus, read-out: MES, animals protected/tested (converted)
Excerpt: as §1
(§2) This oral screen is designated as phase VI.

[5] = in vivo; conditions: rat, po
Excerpt: as §2

[6] = system: Corneal Kindled rats; assay: Corneal kindling; format: in vivo; conditions: for Ave. seizure score: ranking 0-5; for ED50: Rattus norvegicus
Procedure: Corneal kindling studies were performed in our laboratories on 12 and 27 and the results are shown in Tables XI and XII and FIGS. 1A and 1B. Comparative data for the commercial products are included. Seizures evoked in electroshock-kindled rats provide a suitable model consistent with complex partial seizures evolving into generalized motor seizures in humans.
^a Rats kindled to Stage 5. Endpoint was reduction from Stage 5 to […]

[7] = system: Amygdala Kindled Seizures; assay: Suppression of amygdala kindled seizures; format: in vivo
Procedure: Compounds 12 and 27 were evaluated in our laboratory for suppression of amygdala kindled seizures.

[8] = system: bicuculline; assay: Phase V quantification against bicuculline; format: in vivo; conditions: dose not given
Procedure: (§3) Both 12 and 27 were evaluated in Phase V of the ADD Program evaluation scheme. Phase V provides quantification against bicuculline, picrotoxin, pentylenetetrazol, and strychnine. This screen provides information on the mechanism of action of the anticonvulsant activity. Bicuculline, picrotoxin, and strychnine correspond to GABA inhibitory function, chloride channel inhibition and inhibition by glycine respectively.

[9] = system: picrotoxin; assay: Phase V quantification against picrotoxin; format: in vivo; conditions: dose not given
Procedure: as §3

[10] = system: pentylenetetrazol; assay: Phase V quantification against pentylenetetrazol; format: in vivo; conditions: dose not given
Procedure: as §3

[11] = system: strychnine; assay: Phase V quantification against strychnine; format: in vivo; conditions: dose not given
Procedure: as §3

[12] = system: bicuculline, picrotoxin, pentylenetetrazol, and strychnine; conditions: in vivo
Procedure: as §3

[13] = system: benzodiazepine receptor; assay: benzodiazepine receptor binding evaluation
[14] = system: GABA receptor; assay: GABA receptor binding test
[15] = system: adenosine uptake; assay: adenosine uptake assay
[16] = system: seizures; assay: Anticonvulsant evaluation (ASP phase I / overall); format: in vivo, mice
How it was run: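 Male Carworth Farms #1 mice; maximal electroshock seizures elicited by 60-cycle AC, 50 mA, 0.2 s via corneal electrodes after a drop of 0.9% saline in the eye. Animals observed for 30 minutes.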

[17] = Kinetic hydrolysis; format: physicochemical; conditions: for average absorbance value: over incubation periods
Procedure: This solution was 4.0×10^-5 M. Phosphate buffer, pH 7.4 and water were used in this study. All experiments were performed in triplicate. A volume of the stock ethanol solution of 1 (0.2 mL), was diluted with the appropriate solvent to make 1 mL of solution. Each mixture was sealed in a Teflon capped reaction vial and incubated at 37° C. for the same time periods as indicated in the ip rat toxicity study (Tables X and X-A). After each time period, the vials were removed from the incubator and quenched at -80° C. until ready for analysis. Initial scan (t=O h) indicated a λ max at 311 nm for 27. […] After all samples were incubated, the UV spectra was taken from 190-500 nm using the respective solvent as a blank. The results were plotted in terms of absorbance v, time of incubation and the absorbance values.

[18] = Neurotoxicity, rats ip; conditions: 100 mg/kg
Procedure: The rotorod test is used to elevate neurotoxicity. The animal is placed on a 1 inch diameter knurled plastic rod rotating at 6 rpm. […] Neurologic toxicity is defined as the failure of the animal to remain on the rod for 1 minute and the results are expressed as the number of animals protected/the number of animals tested.
The toxicity evaluation for the commercial agents as previously indicated was based on the onset of ataxia.

`COC(=O)C1C(=O)C=C(Nc2ccc(Cl)cc2)CC1C` (centres unmarked) [Compound 27] showed a responders at 100 mg/kg ([1]; Mus musculus, 0.5 h, 30 min) of 100%, a responders at 300 mg/kg ([1]; Mus musculus, 0.5 h, 30 min) of 100% and a responders at 100 mg/kg ([1]; Mus musculus, 4 h, 4 h) of 0%. For the same compound, the responders at 300 mg/kg ([1]; Mus musculus, 4 h, 4 h) was 100%, the ED50 ([1]; Mus musculus, Phase II, time of peak effect) was 26.2 mg/kg and the “TPE (time of peak effect), activity” value ([1]; Phase II) was 0.5. The responders at 100 mg/kg ([2]; 0.5 h, 30 min) was 0%, the responders at 300 mg/kg ([2]; 0.5 h, 30 min) was 0% and the responders at 100 mg/kg ([2]; 4 h, 4 h) was 0%. The responders at 300 mg/kg ([2]; 4 h, 4 h) was 0%, the TD50 [3] was 255 mg/kg and the “TPE (time of peak effect), toxicity” value [3] was 2. For the same compound, the selectivity ratio [3] was 9.72, the ED50 ([4]; Phase VI, rat) was 5.79 mg/kg and the responders at 6 mg/kg ([4]; 0.5 h, 0.50 h) was 75%. The responders at 10 mg/kg ([4]; 0.5 h, 0.50 h) was 100%, the responders at 6 mg/kg ([4]; 1.00 h) was 50% and the responders at 6 mg/kg ([4]; 2.00 h) was 25%. It also gave a responders at 10 mg/kg ([4]; 0.25 h) of 75%, a responders at 10 mg/kg ([4]; 1.00 h) of 100% and a responders at 10 mg/kg ([4]; 2.00 h) of 100%. The responders at 10 mg/kg ([4]; 4.00 h) was 75%, the TD50 [5] was greater than 380 mg/kg and the selectivity ratio [5] was 65.6. The “Tox, animals toxic/tested” value ([5]; 6 mg/kg) was 0/4, the “Tox, animals toxic/tested” value ([5]; 10 mg/kg) was 0/4 and the “% Reduction” value ([6]; 20 mg/kg) was 40%. The Ave. seizure score ([6]; 20 mg/kg) was 3.0, the “% Reduction” value ([6]; 30 mg/kg) was 40% and the Ave. seizure score ([6]; 30 mg/kg) was 3.0. The “% Reduction” value ([6]; 40 mg/kg) was 49%, the Ave. seizure score ([6]; 40 mg/kg) was 2.6 and the “% Reduction” value ([6]; 50 mg/kg) was 87%. The Ave. seizure score ([6]; 50 mg/kg) was 1.7, the ED50 ([6]; po, 0.5 h, read-out: ED50 (reduction from Stage 5 to Stage 4)) was 31.2 mg/kg and the ED50 ([6]; read-out: ED50, corneal kindling) was 31.2 mg/kg. For the same compound, the “Afterdischarge Amygdala: Duration” value ([7]; 350 mg/kg) was 79.8 s, the “Afterdischarge Cortex: Duration” value ([7]; 350 mg/kg) was 79.6 s and the “Afterdischarge Cortex: Latency” value ([7]; 350 mg/kg) was 2.7 s. For the same compound, the “Behavioral Seizure: Duration” value ([7]; 350 mg/kg) was 82.3 s, the “Behavioral Seizure: Latency” value ([7]; 350 mg/kg) was 2.1 s and the “Forelimb Clonus: Duration” value ([7]; 350 mg/kg) was 45.3 s. For the same compound, the “Forelimb Clonus: Latency” value ([7]; 350 mg/kg) was 9.2 s, the “Seizure Stage” value ([7]; 350 mg/kg) was 5.0 and the “suppression of amygdala kindled seizures” value ([7]; in vivo) was “no significant activity”. For the same compound, the “protection against bicuculline” value [8] was “uniformly inactive”, the “protection against picrotoxin” value [9] was “uniformly inactive” and the “protection against pentylenetetrazol” value [10] was “uniformly inactive”. For the same compound, the “protection against strychnine” value [11] was “uniformly inactive”, the “threshold to chemostimulants” value [12] was “did not lower the threshold to these chemostimulants” and the “benzodiazepine receptor binding” value [13] was “inactive”. For the same compound, the “GABA receptor binding” value [14] was “inactive”, the “adenosine uptake” value [15] was “inactive” and the “activity compared with benzylamine counterpart” value ([16]; 27 vs 16, 28 vs 17, 29 vs 20) was “activity is enhanced in all cases”. For the same compound, the minimal effective dose ([16]; Mus musculus, ip, Phase I, read-out: ASP Classification) was less than 100 mg/kg, the “anticonvulsant activity” value ([16]; mouse, in vivo) was “anticonvulsant activity was observed” and the average absorbance value ([17]; aqueous media, 37° C.) was 0.929 (range 0.789-1.069). The average absorbance value ([17]; pH 7.4 buffer, 37° C.) was 1.112 (range 0.983-1.240), the “change of wavelength (λ max) on incubation” value ([17]; water and pH 7.4 buffer, 37° C.) was “the wavelength did not change from 311 nm” and the “significance of absorbance differences” value ([17]; water vs pH 7.4 buffer) was “not significant”. For the same compound, the animals displaying neurotoxicity/tested ([18]; 0.25 h (Table X-A)) was 0/8, the animals displaying neurotoxicity/tested ([18]; 0.50 h (Table X-A)) was 3/8 and the animals displaying neurotoxicity/tested ([18]; 1.00 h (Table X-A)) was 6/8. For the same compound, the animals displaying neurotoxicity/tested ([18]; 2.00 h (Table X-A)) was 7/8, the animals displaying neurotoxicity/tested ([18]; 4.00 h (Table X-A)) was 2/8 and the animals displaying neurotoxicity/tested ([18]; 6.00 h (Table X-A)) was 1/8. For the same compound, the animals displaying neurotoxicity/tested ([18]; 8.00 h (Table X-A)) was 0/8 and the animals displaying neurotoxicity/tested ([18]; 24.00 h (Table X-A)) was 2/8.
